Source: patent publication US12590065B2, “Levorphanol prodrugs and processes for making and using them” (Zevra Therapeutics, Inc., priority 2017, dated 2026)

Assay: stability of the deprotected derivative in aqueous solution
Format: physicochemical
Settings: observed after Boc deprotection with 4N HCl in dioxane
Experimental: A solution of 38 in 4N HCl in dioxane (5 mL) was stirred at room temperature for 2 hours. Solvent was evaporated under reduced pressure, the residue was co-evaporated with IPAc and dried to give 40 in quantitative yield. The deprotected derivative 40 was not stable in aqueous solution. Compound 40 was converted to the acetyl derivative 42.

## CC(C)[C@H](N)C(=O)OCOC(=O)Oc1ccc2c(c1)[C@@]13CCCC[C@H]1[C@@H](C2)N(C)CC3 [Compound 40, 3-(Val-OCH2OC(O))-Levorphanol]
  stability in aqueous solution: not stable
